Assay results taken from patent US12492188B2, “1H-benzo[D]imidazole derivatives as TLR9 inhibitors for the treatment of fibrosis” (BRISTOL-MYERS SQUIBB COMPANY, priority 2020, dated 2025).
Like-named read-outs stand apart in the source and are kept apart here.

Assays:
Format in all cases: cell-based
[1] = biological target: T1, human TLR7 (Homo sapiens, UniProt Q9NYK1); assay: TLR7 inhibition reporter assay (HEK-Blue cells, secreted embryonic alkaline phosphatase reporter); settings: HEK-Blue cells overexpressing human TLR7, stimulated with gardiquimod 7.5 μM; read-out: TLR 7 IC50
T1 construct: host or cells: HEK-Blue cells (HEK293-derived reporter line)
T1 sequence (Q9NYK1 27-1049): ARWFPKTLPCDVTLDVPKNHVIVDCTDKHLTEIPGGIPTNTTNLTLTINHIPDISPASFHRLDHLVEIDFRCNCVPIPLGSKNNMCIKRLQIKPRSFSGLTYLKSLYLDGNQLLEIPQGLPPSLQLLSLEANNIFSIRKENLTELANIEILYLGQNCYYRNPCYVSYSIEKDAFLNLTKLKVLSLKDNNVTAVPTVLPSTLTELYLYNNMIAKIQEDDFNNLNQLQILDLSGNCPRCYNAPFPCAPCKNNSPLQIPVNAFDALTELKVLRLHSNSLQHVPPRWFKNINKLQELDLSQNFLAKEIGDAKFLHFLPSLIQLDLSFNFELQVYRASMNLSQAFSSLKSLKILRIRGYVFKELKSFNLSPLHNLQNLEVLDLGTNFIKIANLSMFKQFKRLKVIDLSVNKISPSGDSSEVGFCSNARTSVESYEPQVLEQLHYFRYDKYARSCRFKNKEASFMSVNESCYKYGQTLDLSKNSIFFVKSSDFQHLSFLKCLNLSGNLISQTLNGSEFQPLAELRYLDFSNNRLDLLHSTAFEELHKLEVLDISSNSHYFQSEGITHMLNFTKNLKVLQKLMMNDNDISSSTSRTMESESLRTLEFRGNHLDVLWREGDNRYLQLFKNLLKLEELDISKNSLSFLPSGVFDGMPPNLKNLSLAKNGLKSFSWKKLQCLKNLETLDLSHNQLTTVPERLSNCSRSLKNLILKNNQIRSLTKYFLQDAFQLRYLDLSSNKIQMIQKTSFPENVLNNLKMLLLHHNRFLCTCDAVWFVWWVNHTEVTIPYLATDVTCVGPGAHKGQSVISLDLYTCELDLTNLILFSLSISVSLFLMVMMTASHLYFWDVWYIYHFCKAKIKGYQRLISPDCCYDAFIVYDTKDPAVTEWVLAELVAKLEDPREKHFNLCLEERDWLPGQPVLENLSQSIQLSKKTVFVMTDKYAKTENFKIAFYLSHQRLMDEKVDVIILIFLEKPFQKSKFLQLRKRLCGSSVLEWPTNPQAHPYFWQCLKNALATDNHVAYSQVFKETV
How it was run: (§1)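 HEK-Blue cells expressing human TLR7, TLR8 or TLR9 with an NF-κB/AP-1-driven SEAP reporter were pretreated with compound (0.05 nM–50 μM final) for 30 min at room temperature. Agonists were gardiquimod 7.5 μM for TLR7, R848 15.9 μM for TLR8 and ODN2006 5 nM for TLR9. SEAP was read after 22 h at 37 °C, and inhibition was calculated relative to agonist-plus-DMSO and known-inhibitor controls.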

[2] = biological target: T2, human TLR8 (Homo sapiens, UniProt Q9NR97); assay: TLR8 inhibition reporter assay (HEK-Blue cells, secreted embryonic alkaline phosphatase reporter); settings: HEK-Blue cells overexpressing human TLR8, stimulated with R848 15.9 μM; read-out: TLR 8 IC50
T2 construct: host or cells: HEK-Blue cells (HEK293-derived reporter line)
T2 sequence (Q9NR97 27-1041): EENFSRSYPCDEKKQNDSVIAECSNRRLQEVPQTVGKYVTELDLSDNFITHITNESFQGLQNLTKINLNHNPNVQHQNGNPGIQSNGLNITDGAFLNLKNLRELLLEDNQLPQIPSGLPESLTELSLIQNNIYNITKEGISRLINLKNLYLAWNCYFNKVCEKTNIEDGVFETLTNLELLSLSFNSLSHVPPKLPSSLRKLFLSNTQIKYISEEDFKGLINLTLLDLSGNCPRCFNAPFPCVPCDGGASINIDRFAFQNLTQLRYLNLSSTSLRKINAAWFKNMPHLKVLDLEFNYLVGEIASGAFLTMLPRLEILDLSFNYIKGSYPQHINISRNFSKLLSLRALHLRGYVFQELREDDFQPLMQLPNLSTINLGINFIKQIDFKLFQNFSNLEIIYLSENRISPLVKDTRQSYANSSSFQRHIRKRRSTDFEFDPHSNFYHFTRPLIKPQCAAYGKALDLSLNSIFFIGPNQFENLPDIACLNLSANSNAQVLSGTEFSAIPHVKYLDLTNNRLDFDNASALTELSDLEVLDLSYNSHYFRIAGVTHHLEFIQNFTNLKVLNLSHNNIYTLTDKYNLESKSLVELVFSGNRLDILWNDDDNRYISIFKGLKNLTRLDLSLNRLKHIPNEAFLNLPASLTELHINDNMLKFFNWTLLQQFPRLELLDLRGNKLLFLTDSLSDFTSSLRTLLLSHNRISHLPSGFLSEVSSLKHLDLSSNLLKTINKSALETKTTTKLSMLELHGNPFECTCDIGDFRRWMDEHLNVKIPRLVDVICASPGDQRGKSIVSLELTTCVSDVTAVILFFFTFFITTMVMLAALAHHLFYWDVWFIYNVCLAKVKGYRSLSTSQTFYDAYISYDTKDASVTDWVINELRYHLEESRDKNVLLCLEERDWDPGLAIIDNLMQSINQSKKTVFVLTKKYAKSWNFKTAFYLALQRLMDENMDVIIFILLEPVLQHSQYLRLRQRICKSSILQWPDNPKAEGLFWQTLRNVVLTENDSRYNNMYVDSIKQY
How it was run: as §1

[3] = biological target: T3, human TLR9 (Homo sapiens, UniProt Q9NR96); assay: TLR9 inhibition reporter assay (HEK-Blue cells, secreted embryonic alkaline phosphatase reporter)
T3 construct: host or cells: HEK-Blue cells (HEK293-derived reporter line)
T3 sequence (Q9NR96 26-1032): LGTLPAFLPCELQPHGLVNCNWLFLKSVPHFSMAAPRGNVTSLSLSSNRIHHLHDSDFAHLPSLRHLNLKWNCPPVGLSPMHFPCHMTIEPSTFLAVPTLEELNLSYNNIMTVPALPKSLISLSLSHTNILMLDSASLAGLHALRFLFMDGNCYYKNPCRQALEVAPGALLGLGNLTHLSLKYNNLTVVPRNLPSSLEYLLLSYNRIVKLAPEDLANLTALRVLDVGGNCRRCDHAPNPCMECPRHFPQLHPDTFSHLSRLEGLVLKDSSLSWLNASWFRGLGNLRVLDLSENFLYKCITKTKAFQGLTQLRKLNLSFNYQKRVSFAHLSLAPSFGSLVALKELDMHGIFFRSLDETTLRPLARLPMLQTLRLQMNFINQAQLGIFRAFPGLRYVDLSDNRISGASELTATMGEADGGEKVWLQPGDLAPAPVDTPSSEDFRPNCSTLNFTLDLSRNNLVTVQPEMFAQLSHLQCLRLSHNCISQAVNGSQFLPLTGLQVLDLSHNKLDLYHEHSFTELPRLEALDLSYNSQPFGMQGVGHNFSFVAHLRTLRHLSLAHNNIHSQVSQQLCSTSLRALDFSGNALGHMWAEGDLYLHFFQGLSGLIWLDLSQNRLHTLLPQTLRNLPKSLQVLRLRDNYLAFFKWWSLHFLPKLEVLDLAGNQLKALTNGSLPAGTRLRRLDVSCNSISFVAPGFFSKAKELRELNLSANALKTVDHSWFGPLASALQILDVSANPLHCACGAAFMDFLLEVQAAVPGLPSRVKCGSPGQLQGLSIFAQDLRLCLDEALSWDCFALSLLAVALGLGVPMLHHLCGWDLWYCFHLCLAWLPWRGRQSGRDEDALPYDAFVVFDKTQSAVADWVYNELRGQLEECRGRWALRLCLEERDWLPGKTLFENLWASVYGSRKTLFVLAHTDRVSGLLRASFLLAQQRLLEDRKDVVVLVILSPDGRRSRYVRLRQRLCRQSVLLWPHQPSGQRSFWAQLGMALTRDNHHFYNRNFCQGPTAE
How it was run: as §1

[4] = HEK-Blue cells overexpressing human TLR9, stimulated with ODN2006 5 nM, read-out: TLR 9 IC50
[5] = HEK-Blue cells overexpressing human TLR9, stimulated with ODN2006 5 nM, 22 hour incubation, reporter readout
[6] = HEK-Blue human TLR9 reporter cells

Row | IC50 [1] [µM] | IC50 [2] [µM] | IC50 [3] [nM] | IC50 [3, 4] [nM] | IC50 [3, 5] [nM] | IC50 [3, 6] [nM] | SMILES
1 | 17.6 | > 50 | 320 | 315 |  |  | Cn1c(-c2ccc(S(C)(=O)=O)cc2)nc2cc(C3CCN(C4CC5CCC(C4)N5C4CCOCC4)CC3)c(F)cc21 (single isomer, unassigned) [Example 256, 6-fluoro-1-methyl-2-(4-(methylsulfonyl)phenyl)-5-(1-(8-(tetrahydro-2H-pyran-4-yl)-8-azabicyclo[3.2.1]octan-3-yl)piperidin-4-yl)-1H-benzo[d]imidazole]
2 | > 50 | > 50 |  | 231 | 230 |  | CC(C)N1C2CCC1CC(N1CCC(c3ccc4c(nc(-c5ccc(S(C)(=O)=O)cc5)n4C)c3F)CC1)C2 (single isomer, unassigned) [Example 90, 4-fluoro-5-(1-(8-isopropyl-8-azabicyclo[3.2.1]octan-3-yl)piperidin-4-yl)-1-methyl-2-(4-(methylsulfonyl)phenyl)-1H-benzo[d]imidazole]
3 | 8.9 | > 25 |  | 139 | 140 |  | Cc1cc(C2CCN(C3CCN(C(C)C)CC3)CC2)cc2c1nc(-c1ccc(S(C)(=O)=O)c(F)c1)n2C [Example 122, 2-(3-fluoro-4-(methylsulfonyl)phenyl)-6-(1′-isopropyl-[1,4′-bipiperidin]-4-yl)-1,4-dimethyl-1H-benzo[d]imidazole]
4 | 0.8 | 1.4 |  | 206 | 210 |  | COc1ccc(-c2nc3ccc(-c4ccc(CN5CCC(N(C)C)CC5)cc4)cc3n2C)cc1 [Example 376, 1-(4-(2-(4-methoxyphenyl)-1-methyl-1H-benzo[d]imidazol-6-yl)benzyl)-N,N-dimethylpiperidin-4-amine]
5 | 6.2 | > 50 |  | 147 |  | 150 | Cn1c(-c2ccc(S(C)(=O)=O)cc2)nc2ccc(C3CCN(C4CCCN(C5COC5)CC4)CC3)c(F)c21 (stereo not shown) [Example 315, 7-fluoro-1-methyl-2-(4-(methylsulfonyl)phenyl)-6-(1-(1-(oxetan-3-yl)azepan-4-yl)piperidin-4-yl)-1H-benzo[d]imidazole]
6 | 6.5 | > 50 |  |  | 25 |  | COc1ccc(-c2nc3c(C)cc(C4CCN(C5CC6CCC(C5)N6CC(C)C)CC4)cc3n2C)cc1OC (single isomer, unassigned) [Example 17, 2-(3,4-dimethoxyphenyl)-6-(1-(8-isobutyl-8-azabicyclo[3.2.1]octan-3-yl)piperidin-4-yl)-1,4-dimethyl-1H-benzo[d]imidazole]
7 | 12.3 | > 50 |  | 180 |  | 180 | Cc1cc(C2CCN(C3CCCN(C4COC4)CC3)CC2)cc2c1nc(-c1ccc(S(C)(=O)=O)cc1)n2C (stereo not shown) [Example 304, 1,4-dimethyl-2-(4-(methylsulfonyl)phenyl)-6-(1-(1-(oxetan-3-yl)azepan-4-yl)piperidin-4-yl)-1H-benzo[d]imidazole]
8 | > 50 | > 50 | 460 | 456 |  |  | Cn1c(-c2ccc(S(C)(=O)=O)cc2)nc2cc(C3CCN(C4CC5CCC(C4)N5C4CCOCC4)CC3)cc(F)c21 (stereo not shown) [Example 212, 7-fluoro-1-methyl-2-(4-(methylsulfonyl)phenyl)-5-(1-(8-(tetrahydro-2H-pyran-4-yl)-8-azabicyclo[3.2.1]octan-3-yl)piperidin-4-yl)-1H-benzo[d]imidazole]
9 | > 50 | > 50 | 89 | 89 |  |  | Cn1c(-c2ccc(S(C)(=O)=O)cc2)nc2ccc(C3CCN(C4CC5CCC(C4)N5C4CCOCC4)CC3)c(F)c21 (stereo not shown) [Example 275, 7-fluoro-1-methyl-2-(4-(methylsulfonyl)phenyl)-6-(1-(8-(tetrahydro-2H-pyran-4-yl)-8-azabicyclo[3.2.1]octan-3-yl)piperidin-4-yl)-1H-benzo[d]imidazole]
10 | 3 | > 50 |  | 164 | 160 |  | Cc1cc(C2CCN(C3CCN(CC(C)C)CC3)CC2)cc2[nH]c(-c3ccc4nccn4c3)nc12 [Example 25, 2-(imidazo[1,2-a]pyridin-6-yl)-6-(1′-isobutyl-[1,4′-bipiperidin]-4-yl)-4-methyl-1H-benzo[d]imidazole]
11 | 1.2 | 5.6 |  | 179 | 180 |  | Cc1cc(-c2ccc(CN3CCC(N(C)C)CC3)cc2)cc2c1nc(-c1ccc(S(C)(=O)=O)cc1)n2C [Example 385, 1-(4-(1,4-dimethyl-2-(4-(methylsulfonyl)phenyl)-1H-benzo[d]imidazol-6-yl)benzyl)-N,N-dimethylpiperidin-4-amine]
